Results on six compounds are retold here after PMC10064330, “Reversible Dual-Covalent Molecular Locking of the 14-3-3/ERRγ Protein–Protein Interaction as a Molecular Glue Drug Discovery Approach” (Journal of the American Chemical Society, 2023).

Square brackets hold non-standard residues; d marks the D form. Peptide text beside a SMILES is read from it. pS = N[C@@H](COP(=O)(O)O)C(=O)O

In assay [1] the target is T1, 14-3-3γ (Homo sapiens, UniProt P61981).
T1 construct: made in house; host or cells: E. coli NiCo21 (DE3)
T1 sequence (P61981 1-247): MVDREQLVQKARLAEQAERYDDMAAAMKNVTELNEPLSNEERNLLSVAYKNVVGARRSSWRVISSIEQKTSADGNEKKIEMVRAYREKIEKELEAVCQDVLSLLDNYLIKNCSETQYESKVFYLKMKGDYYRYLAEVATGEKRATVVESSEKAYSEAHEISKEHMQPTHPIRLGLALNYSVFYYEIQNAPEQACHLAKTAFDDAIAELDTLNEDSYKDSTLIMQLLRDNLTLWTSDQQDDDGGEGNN
The assay is described as follows: FA binding of client phosphopeptides to 14-3-3γ (binary complex). As to conditions: no stabilizer (DMSO); read-out: KD of binary 14-3-3γ/peptide complex.

In assay [2] the target is T2, 14-3-3γ/ERRγ complex (Homo sapiens, UniProt P61981+P62508).
T2 construct: made in house; host or cells: E. coli NiCo21 (DE3)
Briefly: Fluorescence anisotropy (FA): 14-3-3γ titration to fluorescein-ERRγ phosphopeptide with 100 μM compound. Format: binding. The note with it: for stabilization factor SF100, Replicate 1 (Table S2) / stabilization factor SF100, Replicate 2 (Table S2) / stabilization factor SF100, Replicate 3 (Table S2) / stabilization factor SF100, Average (Table S2): KD DMSO control / apparent KD with 100 μM compound, 24 h; for stabilization factor SF100, Average (Table S2): average of three experiments. On the procedure: The stabilization of the ERRγ/14-3-3γ complex by the molecular locks was assessed using a fluorescence anisotropy (FA) assay where 14-3-3γ was titrated into a fluorescently labeled ERRγ phosphopeptide in the absence or presence of a 100 μM molecular lock (Figure 2a,b); this compound concentration was selected based on a FA compound titration assay (Figure S1).
Experimental Section Biophysical Assays
14-3-3γ protein expression (FA, TSA, MS assays)
A pPROEX HTb expression vector encoding the human 14-3-3 protein gamma (14-3-3γ) with a N-terminal his6-tag was transformed by heat shock into NiCo21 (DE3) competent cells. Single colonies were cultured in 50 mL LB medium (100 µg/mL ampicillin). After overnight incubation at 37 °C, cultures were transferred to 2 L TB media (100 µg/mL ampicillin, 1 mM MgCl2) and incubated at 37 °C until an OD600 nm of 0.8 -1.2 was reached. Protein expression was then induced with 0.4 mM isopropyl-β-d-thiogalactoside (IPTG), and cultures were incubated overnight at 18 °C. Cells were harvested by centrifugation (8600 rpm, 20 minu tes, 4 °C) and resuspended in lysis buffer (50 mM Hepes, pH 8.0, 300 mM NaCl, 12.5 mM imidazole, 5 mM MgCl2, 2 mM βME) containing cOmplete™ EDTA-free Protease Inhibitor Cocktail tablets (1 tablet/100 ml lysate) and benzonase ( 5 µl/100 ml). After lysis using a C3 Emulsiflex-C3 homogenizer (Avestin), the cell lysate was cleared by centrifugation (20000 rpm, 30 minutes, 4 °C) and purified using Ni2+-affinity chromatography (Ni -NTA superflow cartridges, Qiagen). Typically two 5 mL columns (flow 5 mL/min) were use d for a 2 L culture in which the lysate was loaded on the column , washed with 10 CV wash buffer (50 mM Hepes, pH 8.0, 300 mM NaCl, 25 mM imidazole, 2 mM βME), and eluted in several fractions (2-4 CV) of elution buffer (50 mM Hepes, pH 8.0, 300 mM NaCl, 250 mM imidazole, 2 mM βME). Fractions containing the 14 -3-3 protein were combined and dialyzed into 25 mM HEPES pH 8.0, 100 mM NaCl, 10 mM MgCl2, 500 µM TCEP. Finally, the protein was concentrated to ∼60 mg/mL, analyzed Q-Tof LC/MS, and aliquots were flash-frozen for storage at −80 °C.
14-3-3σΔc C38N protein expression (Crystallography)
A pPROEX HTb expression vector encoding the human 14-3-3 protein sigma truncated after T231 (14-3-3σΔc), mutated C38N, and containing a N-terminal his6-tag was transformed by heat shock into NiCo21 (DE3) competent cells. Single colonies were cultured in 50 mL LB medium (100 µg/mL ampicillin). After overnight incubation at 37 °C, cultures were transferred to 2 L TB media (100 µg/mL ampicillin, 1 mM MgCl2) and incubated at 37 °C until an OD600 nm of 0.8-1.2 was reached. Protein expression was then induced with 0.4 mM isopropyl-β-d-thiogalactoside (IPTG), and cultures were incubated overnight at 18 °C. Cells were harvested by centrifugation (8600 rpm, 20 minutes, 4 °C) and resuspended in lysis buffer (50 mM Hepes, pH 8.0, 300 mM NaCl, 12.5 mM imidazole, 5 mM MgCl2, 2 mM βME) containing cOmplete™ EDTA-free Protease Inhibitor Cocktail tablets (1 tablet/ 100 ml lysate) and benzonase (5 µl/ 100 ml). After lysis using a C3 Emulsiflex-C3 homogenizer (Avestin), […]
chromatography (Ni-NTA superflow cartridges, Qiagen). Typically two 5 mL columns were used for a 2 L culture in which the lysate was loaded on the column , washed with 10 CV wash buffer (50 mM Hepes, pH 8.0, 300 mM NaCl, 25 mM imidazole, 2 mM βME), and eluted with several fractions (2 -4 CV) of elution buffer (50 mM Hepes, pH 8.0, 300 mM NaCl, 250 mM imidazole, 2 mM βME). Fractions containing the 14-3-3 protein were combined and dialyzed into 25 mM HEPES pH 8.0, 200 mM NaCl, 10 mM MgCl 2, 2 mM βME. In addition, 1 mg TEV was added for each 100 mg purified protein to remove the purification tag. The cleaved sample was then again loaded on a 10 mL Ni-NTA column to separate the cleaved product from the expression tag and residual uncleaved protein. The flowthrough was loaded on a Superdex 75 pg 16/60 size exc lusion column (GE Life Sciences) using […]
For orientation: In fluorescence polarisation assays a small probe gives low polarisation when free and higher when bound to something large.

Turning to `CC(=O)N[C@@H](CCCCN)C(=O)N[C@@H](CCCNC(=N)N)C(=O)N[C@@H](CCCNC(=N)N)C(=O)N[C@@H](CCCNC(=N)N)C(=O)N[C@@H](CCCCN)C(=O)N[C@@H](COP(=O)(O)O)C(=O)N[C@@H](CS)C(=O)N[C@@H](CCC(N)=O)C(=O)N[C@@H](C)C(N)=O` [ERRγ] (Ac-KRRRK[pS]CQA-NH2; N-terminus and C-terminus assumed), the Kd in assay [1] was 6.5 ± 0.9 µM.
As for `CN(C)CCSSCCN(C)C(=O)c1ccc(C=O)cc1` [compound 4], in assay [2], the “stabilization factor SF100, Replicate 1 (Table S2)” value was determined as 13.0; the “stabilization factor SF100, Replicate 2 (Table S2)” value is 8.6; the “stabilization factor SF100, Replicate 3 (Table S2)” value is 9.0; the “stabilization factor SF100, Average (Table S2)” value is given as 10.2.
Take `CN(C)CCSSCCN(C)C(=O)c1ccc(C=O)c(Br)c1` [compound 6]: in assay [2], the “stabilization factor SF100, Replicate 1 (Table S2)” value was determined as 22.3; the “stabilization factor SF100, Replicate 2 (Table S2)” value stood at 14.3; the “stabilization factor SF100, Replicate 3 (Table S2)” value was 16.9; the “stabilization factor SF100, Average (Table S2)” value came out at 17.8.
On the same counts, the results for `CN(C)CCSSCCN(C)S(=O)(=O)c1ccc(C=O)cc1` [compound 7] are 13.4, 11.4, 8.6 and 11.2.
As to `CN(C)CCSSCCN(C)C(=O)c1cccc(C=O)c1` [compound 8], in assay [2], the “stabilization factor SF100, Replicate 1 (Table S2)” value was found to be 25.5; the “stabilization factor SF100, Replicate 2 (Table S2)” value worked out at 17.3; the “stabilization factor SF100, Replicate 3 (Table S2)” value was 19.0; the “stabilization factor SF100, Average (Table S2)” value is 20.6.
As for `CN(C)CCSSCCN(C)C(=O)c1ccc(F)c(C=O)c1` [compound 9], the “stabilization of 14-3-3γ/ERRγ complex (SF100, fold)” value in assay [2] (100 μM compound, 24 h incubation) is “least active”. Besides, in assay [2], the “stabilization factor SF100, Replicate 1 (Table S2)” value turned out to be 8.5; the “stabilization factor SF100, Replicate 2 (Table S2)” value is 5.4; the “stabilization factor SF100, Replicate 3 (Table S2)” value is given as 7.9; the “stabilization factor SF100, Average (Table S2)” value is recorded as 7.3.
